Patent publication US9242987B2, “Heterocyclyl pyrazolopyrimidine analogues as JAK inhibitors” (Cellzome Limited, priority 2009, dated 2016)

What was measured:
JAK3 = target: T1, JAK3 (Homo sapiens, UniProt P52333); assay: Kinobeads assay, JAK3; assay type: binding; details: mixed Molt4/Ramos cell lysate, dot blot detection
T1 construct: endogenous in cells; host or cells: Mixed Molt4/Ramos lysate (1:2)
T1 sequence (P52333 1-1124): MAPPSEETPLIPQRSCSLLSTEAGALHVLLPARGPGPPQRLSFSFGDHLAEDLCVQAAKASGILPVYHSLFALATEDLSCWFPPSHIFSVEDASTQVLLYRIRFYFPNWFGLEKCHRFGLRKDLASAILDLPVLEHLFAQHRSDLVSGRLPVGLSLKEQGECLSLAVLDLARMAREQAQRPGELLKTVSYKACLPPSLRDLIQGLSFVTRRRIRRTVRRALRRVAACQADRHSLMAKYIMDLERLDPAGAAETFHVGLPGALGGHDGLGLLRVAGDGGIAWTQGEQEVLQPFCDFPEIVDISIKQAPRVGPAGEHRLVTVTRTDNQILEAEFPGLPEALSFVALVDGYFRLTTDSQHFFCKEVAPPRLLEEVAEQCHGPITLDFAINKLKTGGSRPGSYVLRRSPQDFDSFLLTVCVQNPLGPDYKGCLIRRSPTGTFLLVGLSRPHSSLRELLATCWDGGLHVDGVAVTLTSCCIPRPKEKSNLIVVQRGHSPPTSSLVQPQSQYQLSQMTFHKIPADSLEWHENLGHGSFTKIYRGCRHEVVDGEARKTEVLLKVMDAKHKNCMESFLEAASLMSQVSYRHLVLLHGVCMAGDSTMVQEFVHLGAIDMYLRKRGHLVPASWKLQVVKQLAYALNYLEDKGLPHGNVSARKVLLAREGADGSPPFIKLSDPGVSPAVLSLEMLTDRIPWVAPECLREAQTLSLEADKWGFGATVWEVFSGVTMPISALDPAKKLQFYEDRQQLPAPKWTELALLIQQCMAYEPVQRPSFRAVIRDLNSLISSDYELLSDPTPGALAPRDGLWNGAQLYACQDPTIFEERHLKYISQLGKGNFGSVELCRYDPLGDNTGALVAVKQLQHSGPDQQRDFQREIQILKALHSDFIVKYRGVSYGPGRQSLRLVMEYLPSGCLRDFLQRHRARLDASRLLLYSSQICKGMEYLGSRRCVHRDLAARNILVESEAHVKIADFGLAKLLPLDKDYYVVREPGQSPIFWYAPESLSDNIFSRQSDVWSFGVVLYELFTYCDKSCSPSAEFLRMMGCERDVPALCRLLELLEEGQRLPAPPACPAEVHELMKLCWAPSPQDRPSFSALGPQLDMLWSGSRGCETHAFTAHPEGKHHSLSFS
Method: (§1) The compounds of the present invention as described in the previous examples were tested in a Kinobeads™ assay as described for ZAP-70 (WO-A 2007/137867). Briefly, test compounds (at various concentrations) and the affinity matrix with the immobilized aminopyrido-pyrimidine ligand 24 were added to cell lysate aliquots and allowed to bind to the proteins in the lysate sample. After the incubation time the beads with captured proteins were separated from the lysate. Bound proteins were then eluted and the presence of JAK2 and JAK3 was detected and quantified using specific antibodies in a dot blot procedure and the Odyssey infrared detection system. Dose response curves for individual kinases were generated and IC50 values calculated. Kinobeads™ assays for ZAP-70 (WO-A 2007/137867) and for kinase selectivity profiling (WO-A 2006/134056) have been previously described.
(§2) The affinity matrix was washed two times with 15 mL of 1×DP buffer containing 0.2% NP40 (IGEPAL® CA-630, Sigma, #13021) and then resuspended in 1×DP buffer containing 0.2% NP40 (3% beads slurry).
(§3) 5×DP buffer: 250 mM Tris-HCl pH 7.4, 25% Glycerol, 7.5 mM MgCl2, 750 mM NaCl, 5 mM Na3VO4; filter the 5×DP buffer through a 0.22 μm filter and store in aliquots at −80° C. The 5×DP buffer is diluted with H2O to 1×DP buffer containing 1 mM DTT and 25 mM NaF.
(§4) Stock solutions of test compounds were prepared in DMSO. In a 96 well plate 30 μL solution of diluted test compounds at 5 mM in DMSO were prepared. Starting with this solution a 1:3 dilution series (9 steps) was prepared. For control experiments (no test compound) a buffer containing 2% DMSO was used.
(§5) Molt4 cells (ATCC catalogue number CRL-1582) and Ramos cells (ATCC catalogue number CRL-1596) were grown in 1 L Spinner flasks (Integra Biosciences, #182101) in suspension in RPMI 1640 medium (Invitrogen, #21875-034) supplemented with 10% Fetal Bovine Serum (Invitrogen) at a density between 0.15×10^6 and 1.2×10^6 cells/mL. Cells were harvested by centrifugation, washed once with 1×PBS buffer (Invitrogen, #14190-094) and cell pellets were frozen in liquid nitrogen and subsequently stored at −80° C. Cells were homogenized in a Potter S homogenizer in lysis buffer: 50 mM Tris-HCl, 0.8% NP40, 5% glycerol, 150 mM NaCl, 1.5 mM MgCl2, 25 mM NaF, 1 mM sodium vanadate, 1 mM DTT, pH 7.5. One complete EDTA-free tablet (protease inhibitor cocktail, Roche Diagnostics, 1873580) per 25 mL buffer was added. The material was dounced 10 times using a mechanized POTTER S, transferred to 50 mL falcon tubes, incubated for 30 minutes on ice and spun down for 10 minutes at 20,000 g at 4° C. (10,000 rpm in Sorvall SLA600, precooled). The supernatant was transferred to an ultracentrifuge (UZ)-polycarbonate tube (Beckmann, 355654) and spun for 1 hour at 100.000 g at 4° C. (33.500 rpm in Ti50.2, precooled). The supernatant was transferred again to a fresh 50 mL falcon tube, the protein concentration was determined by a Bradford assay (BioRad) and samples containing 50 mg of protein per aliquot were prepared. The samples were immediately used for experiments or frozen in liquid nitrogen and stored frozen at −80° C.
(§6) Cell lysate (approximately 50 mg protein per plate) was thawed in a water bath at room temperature and then stored on ice. To the thawed cell lysate 1×DP 0.8% NP40 buffer containing protease inhibitors (1 tablet for 25 mL buffer; EDTA-free protease inhibitor cocktail; Roche Diagnostics 1873580) was added in order to reach a final protein concentration of 10 mg/mL total protein. The diluted cell lysate was stored on ice. Mixed Molt4/Ramos lysate was prepared by combining one volume of Molt4 lysate and two volumes of Ramos lysate (ratio 1:2).
(§7) To a 96 well filter plate (Multiscreen HTS, BV Filter Plates, Millipore #MSBVN1250) were added per well: 100 μL affinity matrix (3% beads slurry), […], of compound solution, and 50 μL of diluted lysate. […]

JAK2 = target: T2, JAK2 (Homo sapiens, UniProt O60674); assay: Kinobeads assay, JAK2; assay type: binding; details: mixed Molt4/Ramos cell lysate, dot blot detection
T2 construct: endogenous in cells; host or cells: Mixed Molt4/Ramos lysate (1:2)
Method: as §1, §2, §3, §4, §5, §6, §7

T2 sequence (O60674 whole entry): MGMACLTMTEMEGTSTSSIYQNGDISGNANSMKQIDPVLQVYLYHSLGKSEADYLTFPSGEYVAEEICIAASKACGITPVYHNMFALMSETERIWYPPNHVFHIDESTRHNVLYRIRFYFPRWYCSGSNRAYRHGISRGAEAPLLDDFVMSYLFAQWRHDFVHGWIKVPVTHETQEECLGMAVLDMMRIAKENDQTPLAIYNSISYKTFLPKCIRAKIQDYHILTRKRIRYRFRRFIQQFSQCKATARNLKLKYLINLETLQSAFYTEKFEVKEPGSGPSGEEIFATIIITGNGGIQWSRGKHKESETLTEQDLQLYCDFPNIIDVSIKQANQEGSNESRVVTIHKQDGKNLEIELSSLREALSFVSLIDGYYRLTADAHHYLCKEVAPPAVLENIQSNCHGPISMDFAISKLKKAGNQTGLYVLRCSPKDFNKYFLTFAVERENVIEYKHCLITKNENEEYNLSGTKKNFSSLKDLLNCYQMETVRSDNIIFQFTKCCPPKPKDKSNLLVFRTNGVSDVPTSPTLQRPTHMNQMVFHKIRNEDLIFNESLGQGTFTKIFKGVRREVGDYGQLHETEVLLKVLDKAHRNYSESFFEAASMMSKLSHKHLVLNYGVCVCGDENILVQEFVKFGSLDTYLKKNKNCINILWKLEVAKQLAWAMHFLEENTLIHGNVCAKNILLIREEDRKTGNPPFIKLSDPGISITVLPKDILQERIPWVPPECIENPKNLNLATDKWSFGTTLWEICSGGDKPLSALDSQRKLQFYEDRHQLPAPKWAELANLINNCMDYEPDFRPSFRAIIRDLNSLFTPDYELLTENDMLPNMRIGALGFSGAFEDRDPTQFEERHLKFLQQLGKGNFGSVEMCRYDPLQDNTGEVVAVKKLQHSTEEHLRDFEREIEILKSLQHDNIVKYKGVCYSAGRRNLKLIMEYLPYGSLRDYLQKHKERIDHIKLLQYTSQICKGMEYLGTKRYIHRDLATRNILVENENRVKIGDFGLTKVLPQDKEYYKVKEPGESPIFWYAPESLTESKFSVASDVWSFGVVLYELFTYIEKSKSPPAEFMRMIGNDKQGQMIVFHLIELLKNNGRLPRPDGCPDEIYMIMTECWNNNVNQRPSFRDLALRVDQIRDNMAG

Row | SMILES | IC50 (JAK3) [nM] | IC50 (JAK2) [nM]
1 | Cn1ccc(Nc2ncc3cnn(Cc4ccccc4C#N)c3n2)n1 [Example 3, 2-((6-(1-Methyl-1H-pyrazol-3-ylamino)-1H-pyrazolo[3,4-d]pyrimidin-1-yl)methyl)benzonitrile] | 100 to 1000 | ≥ 10000
2 | N#Cc1ccccc1Cn1ncc2cnc(Nc3ccon3)nc21 [Example 8] | 1000 to 10000 | ≥ 10000
3 | Cc1cc(Nc2ncc3cnn(Cc4ccccc4C#N)c3n2)nn1C [Example 9, 2-((6-(1,5-Dimethyl-1H-pyrazol-3-ylamino)-1H-pyrazolo[3,4-d]pyrimidin-1-yl)methyl)benzonitrile] | 100 to 1000 | ≥ 10000
4 | Cn1cc(Nc2ncc3cnn(Cc4ccccc4C(N)=O)c3n2)cn1 [Example 16, 2-((6-(1-Methyl-1H-pyrazol-4-ylamino)-1H-pyrazolo[3,4-d]pyrimidin-1-yl)methyl)benzamide] | < 100 | 1000 to 10000
5 | CC(C)n1ccc(Nc2ncc3cnn(Cc4ccccc4C#N)c3n2)n1 [Example 19, 2-((6-(1-Isopropyl-1H-pyrazol-3-ylamino)-1H-pyrazolo[3,4-d]pyrimidin-1-yl)methyl)benzonitrile] | 1000 to 10000 | ≥ 10000
6 | N#CCCCn1cc(Nc2ncc3cnn(Cc4ccccc4C#N)c3n2)cn1 [Example 20, 2-((6-(1-(3-Cyanopropyl)-1H-pyrazol-4-ylamino)-1H-pyrazolo[3,4-d]pyrimidin-1-yl)methyl)benzonitrile] | < 100 | 1000 to 10000
7 | CCCn1cc(Nc2ncc3cnn(Cc4ccccc4C#N)c3n2)c(C)n1 [Example 21, 2-((6-(3-Methyl-1-propyl-1H-pyrazol-4-ylamino)-1H-pyrazolo[3,4-d]pyrimidin-1-yl)methyl)benzonitrile] | 100 to 1000 | ≥ 10000
8 | Cc1nn(CC(F)F)cc1Nc1ncc2cnn(Cc3ccccc3C#N)c2n1 [Example 22, 2-((6-(1-(2,2-Difluoroethyl)-3-methyl-1H-pyrazol-4-ylamino)-1H-pyrazolo[3,4-d]pyrimidin-1-yl)methyl)benzonitrile] | < 100 | ≥ 10000
9 | Cn1cc(Nc2ncc3cnn(Cc4cccc(N5CCOCC5)c4)c3n2)cn1 [Example 162, N-(1-Methyl-1H-pyrazol-4-yl)-1-(3-morpholinobenzyl)-1H-pyrazolo[3,4-d]pyrimidin-6-amine] | – | ≥ 10000
10 | O=C(c1cccc(Cn2ncc3cnc(Nc4cnn(CCO)c4)nc32)c1F)N1CCOCC1 [Example 313, (2-Fluoro-3-((6-((1-(2-hydroxyethyl)-1H-pyrazol-4-yl)amino)-1H-pyrazolo[3,4-d]pyrimidin-1-yl)methyl)phenyl)(morpholino)methanone] | – | ≥ 10000

Now from value to molecule:

Row | IC50 (JAK3) [nM] | IC50 (JAK2) [nM] | SMILES
11 | < 100 | 1000 to 10000 | Cn1cc(Nc2ncc3cnn(Cc4ccccc4C#N)c3n2)cn1 [Example 1, 2-((6-(1-Methyl-1H-pyrazol-4-ylamino)-1H-pyrazolo[3,4-d]pyrimidin-1-yl)methyl)benzonitrile]
12 | < 100 | 1000 to 10000 | Cn1cc(Nc2ncc3cnn(Cc4ccccc4F)c3n2)cn1 [Example 2, 1-(2-Fluorobenzyl)-N-(1-methyl-1H-pyrazol-4-yl)-1H-pyrazolo[3,4-d]pyrimidin-6-amine]
13 | < 100 | 100 to 1000 | N#Cc1ccccc1Cn1ncc2cnc(Nc3cn[nH]c3)nc21 [Example 4, 2-((6-(1H-Pyrazol-4-ylamino)-1H-pyrazolo[3,4-d]pyrimidin-1-yl)methyl)benzonitrile]
14 | < 100 | 100 to 1000 | COCCn1cc(Nc2ncc3cnn(Cc4ccccc4C#N)c3n2)cn1 [Example 10, 2-((6-(1-(2-Methoxyethyl)-1H-pyrazol-4-ylamino)-1H-pyrazolo[3,4-d]pyrimidi-1-yl)methyl)benzonitrile]
15 | < 100 | 1000 to 10000 | CCn1cc(Nc2ncc3cnn(Cc4ccccc4C#N)c3n2)cn1 [Example 11, 2-((6-(1-Ethyl-1H-pyrazol-4-ylamino)-1H-pyrazolo[3,4-d]pyrimidin-1-yl)methyl)benzonitrile]
16 | < 100 | 1000 to 10000 | CC(C)n1cc(Nc2ncc3cnn(Cc4ccccc4C#N)c3n2)cn1 [Example 12, 2-((6-(1-Isopropyl-1H-pyrazol-4-ylamino)-1H-pyrazolo[3,4-d]pyrimidin-1-yl)methyl)benzonitrile]
17 | < 100 | 100 to 1000 | CNC(=O)Cn1cc(Nc2ncc3cnn(Cc4ccccc4C#N)c3n2)cn1 [Example 13, 2-(4-(1-(2-Cyanobenzyl)-1H-pyrazolo[3,4-d]pyrimidin-6-ylamino)-1H-pyrazol-1-yl)-N-methylacetamide]
18 | < 100 | 100 to 1000 | N#Cc1ccccc1Cn1ncc2cnc(Nc3cnn(CC(=O)N4CCOCC4)c3)nc21 [Example 14, 2-((6-(1-(2-Morpholino-2-oxoethyl)-1H-pyrazol-4-ylamino)-1H-pyrazolo[3,4-d]pyrimidin-1-yl)methyl)benzonitrile]
19 | < 100 | 1000 to 10000 | N#CCCn1cc(Nc2ncc3cnn(Cc4ccccc4C#N)c3n2)cn1 [Example 15, 2-((6-(1-(2-Cyanoethyl)-1H-pyrazol-4-ylamino)-1H-pyrazolo[3,4-d]pyrimidin-1-yl)methyl)benzonitrile]
20 | 100 to 1000 | 100 to 1000 | CN(c1ccc(-n2ncc3cnc(Nc4cnn(C)c4)nc32)cc1)S(C)(=O)=O [Example 17, N-Methyl-N-(4-(6-(1-methyl-1H-pyrazol-4-ylamino)-1H-pyrazolo[3,4-d]pyrimidin-1-yl)phenyl)methanesulfonamide]
21 | < 100 | 100 to 1000 | Cn1cc(Nc2ncc3cnn(-c4ccc(NS(C)(=O)=O)cc4)c3n2)cn1 [Example 18, N-(4-(6-(1-Methyl-1H-pyrazol-4-ylamino)-1H-pyrazolo[3,4-d]pyrimidin-1-yl)phenyl)methanesulfonamide]
